This is an account of results in US5972939A, “Cyclopentene derivatives useful as antagonists of the motilin receptor” (Ortho-McNeil Pharmaceutical, Inc., priority 1998, dated 1999).

The term inhibition denotes the share of the control response that was lost under treatment. High values mean a response far below the control, low ones a response near the control. A word on the IC50: it is the concentration needed to halve the response being measured.

Read-outs that look alike come from different tables or passages of the source.

The assay addresses T1, motilin receptors located on the colon of mature rabbits (Oryctolagus cuniculus, UniProt G1T803).
T1 construct: The colon from mature New Zealand rabbits was removed, dissected free from the mucosa and serosa layers, and diced into small pieces; from tissue; host or cells: colon smooth muscle of mature New Zealand rabbits, crude membrane homogenate
The assay can be described thus: competition with radiolabeled (125I) porcine motilin for the motilin receptors of rabbit colon. The conditions noted are these: for IC50: rabbit colon, 125I motilin. It counts as binding. The protocol: The compounds of the invention were tested for their ability to compete with radiolabeled motilin (porcine) for the motilin receptors located on the colon of mature rabbits. The colon from mature New Zealand rabbits was removed, dissected free from the mucosa and serosa layers, and diced into small pieces. […] The homogenate was centrifuged at 1000×g for 15 min. and the supernatant discarded. The pellet was washed twice before being suspended in homogenizing buffer. This crude homogenate is then passed first through a 19 gauge needle then a 23 gauge needle to further suspend the material and stored as -80° C. […] After 30 min, at 30° C., the material was cooled on ice and centrifuged at 13,000×g for 1 minute. The pellet was washed with 1 mL 0.9% saline and centrifuged at 13,000×g for 15 seconds. The pellet was washed again with cold saline and the supernatant was removed. The pellet was counted in the gamma counter to determine the percentage of […] motilin and thereby the percent inhibition of the test compound. IC50s were determined for some compounds by standard techniques.

T1 sequence (G1T803 1-400): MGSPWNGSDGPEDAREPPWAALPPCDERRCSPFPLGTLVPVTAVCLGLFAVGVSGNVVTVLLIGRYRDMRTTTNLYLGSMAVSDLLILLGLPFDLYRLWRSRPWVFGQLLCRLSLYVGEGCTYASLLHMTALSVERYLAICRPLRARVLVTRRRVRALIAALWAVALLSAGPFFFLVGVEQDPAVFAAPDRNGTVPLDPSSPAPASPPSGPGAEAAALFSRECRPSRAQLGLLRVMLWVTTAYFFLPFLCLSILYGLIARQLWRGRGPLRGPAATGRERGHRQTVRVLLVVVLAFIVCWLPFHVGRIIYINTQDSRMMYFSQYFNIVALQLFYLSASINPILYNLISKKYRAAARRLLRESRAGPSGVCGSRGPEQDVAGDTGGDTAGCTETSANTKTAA

Regarding `O=C(NC1(Cc2ccccc2)C=C(CNc2cccc(OCCN3CCOCC3)c2)CC1)C(Cl)(Cl)Cl` (stereo not drawn) [Compound 6], the inhibition at 10 µM turned out to be 37%.

`O=C(NC1(Cc2ccccc2)C=C(CN(C(=S)Nc2ccccc2)c2cccc(OCCN3CCOCC3)c2)CC1)C(Cl)(Cl)Cl` (stereo not drawn) [Compound 11] yielded an inhibition at 0.1 µM of 45%.

The compound `CC(=O)NC1(Cc2ccccc2)C=C(CN(C(=O)Nc2ccccc2)c2cccc(OCCN3CCOCC3)c2)CC1` (stereo not drawn) [Compound 15, 3-Benzyl-3-acetylamino-1-(N-phenylaminocarbonyl)-N-[(3-(2-morpholinoethoxy)phenyl)amino]methylcyclopentene] gave an inhibition at 1 µM of 40%.

Compound `O=C(Nc1ccccc1)N(CC1=CC(Cc2ccccc2)(NC(=O)C(Cl)(Cl)Cl)CC1)c1cccc(CCCN2CCOCC2)c1` (stereo not drawn) [Compound 19] yielded an inhibition at 1 µM of 59%.

Compound `O=C(Nc1ccccc1)N(CC1=CC(Cc2ccccc2)(NC(=O)C(Cl)(Cl)Cl)CC1)c1cccc(SCCN2CCOCC2)c1` (stereo not drawn) [Compound 22, 3-Benzyl-3-trichloroacetylamino-1-(N-phenylaminocarbonyl)-N-[(3-(2-morpholinoethyl)phenyl)thio]methylcyclopentene] came in with an inhibition at 10 µM of 83%.

The compound `O=C(c1ccccc1)N(CC1=CC(Cc2ccccc2)(NC(=O)C(Cl)(Cl)Cl)CC1)Cc1cccc(OCCN2CCOCC2)c1` (stereo not drawn) [Compound 32] showed an inhibition at 10 µM of 70%.

`COc1ccc(N(CC2=CC(Cc3ccccc3)(NC(=O)C(Cl)(Cl)Cl)CC2)C(=O)c2ccccc2)cc1OCCN1CCOCC1` (stereo not drawn) [Compound 34] registered an inhibition at 10 µM of 74%.

Consider `O=C(c1ccc(Br)cc1)N(CC1=CC(Cc2ccccc2)(NC(=O)C(Cl)(Cl)Cl)CC1)c1cc(OCCN2CCOCC2)ccc1Cl` (stereo not drawn) [Compound 38], for which at 1 µM the inhibition was 59%.

Compound `COc1ccc(N(CCN2CCOCC2)CC2=CC(Cc3ccccc3)(NC(=O)C(Cl)(Cl)Cl)CC2)cc1OCCN1CCOCC1` (stereo not drawn) [Compound 40] came in with an inhibition at 10 µM of 27%.

In turn, `O=C(c1ccccc1)N(CCc1cccc(OCCN2CCOCC2)c1)CC1=CC(Cc2ccccc2)(NC(=O)C(Cl)(Cl)Cl)CC1` (stereo not drawn) [Compound 41] gave an inhibition at 10 µM of 82%.

Compound `CCOC(=O)COc1cccc(N(CC2=CC(Cc3ccccc3)(NC(=O)C(Cl)(Cl)Cl)CC2)C(=O)c2ccccc2)c1` (stereo not drawn) [Compound 46] displayed an inhibition at 10 µM of 51%.

`O=C(NC1(Cc2ccccc2)C=C(CNc2ccc(O)cc2)CC1)C(Cl)(Cl)Cl` (stereo not drawn) [Compound 69] came in with an inhibition at 10 µM of 11%.

With `CCN(CC)CCN(CC1=CC(Cc2ccccc2)(NC(=O)C(Cl)(Cl)Cl)CC1)c1ccccc1OCCN1CCOCC1` (stereo not drawn) [Compound 70], at 10 µM the inhibition was 80%.

In the case of `CCN(CC)CCN(CC1=CC(Cc2ccccc2)(NC(=O)C(Cl)(Cl)Cl)CC1)c1ccc(OCCN(C)C)cc1` (stereo not drawn) [Compound 71], testing at 10 µM gave an inhibition of 85%.

For the compound `CCN(CC)CCN(CC1=CC(Cc2ccccc2)(NC(=O)C(Cl)(Cl)Cl)CC1)c1ccccc1OCCN1CCOCC1` (stereo not drawn) [Compound 72], the IC50 (read-out: IC50 (unit inferred)) is 900 nM.

In turn, `CCN(CC)CCN(CC1=CC(Cc2ccccc2)(NC(=O)C(Cl)(Cl)Cl)CC1)c1ccccc1O` (stereo not drawn) [Compound 73] showed an inhibition at 10 µM of 84%.

`CCN(CC)CCN(CC1=CC(Cc2ccccc2)(NC(=O)C(Cl)(Cl)Cl)CC1)c1ccc(O)cc1` (stereo not drawn) [Compound 74] came in with an inhibition at 10 µM of 81%.

Compound `Nc1cccc(NCC2=CC(Cc3ccccc3)(NC(=O)C(Cl)(Cl)Cl)CC2)c1` (stereo not drawn) [Compound 75] came in with an inhibition at 10 µM of 41%.

`CCN(CC)CCN(CCc1ccc(O)cc1)CC1=CC(Cc2ccccc2)(NC(=O)C(Cl)(Cl)Cl)CC1` (stereo not drawn) [Compound 76]: testing at 10 µM gave an inhibition of 84%.

For the compound `CCN(CC)CCOc1cccc(CN(CC2=CC(Cc3ccccc3)(NC(=O)C(Cl)(Cl)Cl)CC2)C2CCN(Cc3ccccc3)CC2)c1` (stereo not drawn) [Compound 77], the IC50 (read-out: IC50 (unit inferred)) was 800 nM.

`CC(=O)N(CC1=CC(Cc2ccccc2)(NC(=O)C(Cl)(Cl)Cl)CC1)c1cccc(OCCN2CCOCC2)c1` (stereo not drawn) [Compound 78]: the IC50 (read-out: IC50 (unit inferred)) amounted to 1030 nM.

In turn, `CCN(CC)CCSc1cccc(N(CC2=CC(Cc3ccccc3)(NC(=O)C(Cl)(Cl)Cl)CC2)C(=O)c2ccccc2)c1` (stereo not drawn) [Compound 79] came in with an inhibition at 10 µM of 98%.

As to `O=C(c1ccc(F)cc1)N(CC1=CC(Cc2ccccc2)(NC(=O)C(Cl)(Cl)Cl)CC1)c1cccc(SCCN2CCOCC2)c1` (stereo not drawn) [Compound 80], 10 µM produced 79% inhibition.

Take `O=C(NC1(Cc2ccccc2)C=C(CNCCc2cccc(SCCN3CCOCC3)c2)CC1)C(Cl)(Cl)Cl` (stereo not drawn) [Compound 81]: the inhibition at 10 µM worked out at 81%.

Compound `O=C(c1ccccc1)N(CC1=CC(Cc2ccccc2)(NC(=O)C(Cl)(Cl)Cl)CC1)c1cccc(SCCN2CCOCC2)c1` (stereo not drawn) [Compound 82] returned an inhibition at 10 µM of 80%.

`CCN(CC)CCOc1cccc(CN(CC2=CC(Cc3ccccc3)(NC(=O)C(Cl)(Cl)Cl)CC2)C(=O)c2ccccc2)c1` (stereo not drawn) [Compound 83]: 10 µM produced 100% inhibition.

Consider `COc1ccc(C(=O)N(CC2=CC(Cc3ccccc3)(NC(=O)C(Cl)(Cl)Cl)CC2)c2cccc(SCCN3CCOCC3)c2)cc1` (stereo not drawn) [Compound 84], for which the inhibition at 10 µM was 59%.

As for `O=C(Oc1cccc(CCN(CCN2CCOCC2)CC2=CC(Cc3ccccc3)(NC(=O)C(Cl)(Cl)Cl)CC2)c1)c1ccccc1` (stereo not drawn) [Compound 85], at 2 µM the inhibition was 9%.

Consider `CN(C)CCSc1ccc(N(CC2=CC(Cc3ccccc3)(NC(=O)C(Cl)(Cl)Cl)CC2)C(=O)c2ccccc2)cc1` (stereo not drawn) [Compound 86], for which testing at 2 µM gave an inhibition of 49%.

`COc1ccc(NCC2=CC(Cc3ccccc3)(NC(=O)C(Cl)(Cl)Cl)CC2)cc1O` (stereo not drawn) [Compound 87] came in with an inhibition at 10 µM of 32%.

In turn, `O=C(NC1(Cc2ccccc2)C=C(CN(Cc2ccccc2)Cc2cccc(OCCN3CCOCC3)c2)CC1)C(Cl)(Cl)Cl` (stereo not drawn) [Compound 88] came in with an inhibition at 10 µM of 94%.

Where the note is “@ 5.0 μM”, `COc1ccc(NC(=O)N(CC2=CC(Cc3ccccc3)(NC(=O)C(Cl)(Cl)Cl)CC2)c2cccc(OCCN3CCOCC3)c2)cc1` (stereo not drawn) [Compound 89] had an inhibition at 5 µM of 26%.

As for `COc1cccc(C(=O)N(CC2=CC(Cc3ccccc3)(NC(=O)C(Cl)(Cl)Cl)CC2)c2cccc(OCCN3CCOCC3)c2)c1` (stereo not drawn) [Compound 90], the inhibition at 0.5 µM (@ 0.5 μM) turned out to be 65%.

As to `CCN(CC)CCN(CCc1cccc(OCCN2CCOCC2)c1)CC1=CC(Cc2ccccc2)(NC(=O)C(Cl)(Cl)Cl)CC1` (stereo not drawn) [Compound 92], the inhibition at 10 µM stood at 95%.

On to `COc1ccc(N(CC2=CC(Cc3ccccc3)(NC(=O)C(Cl)(Cl)Cl)CC2)Cc2ccccc2)cc1OCCN1CCOCC1` (stereo not drawn) [Compound 93], for which the inhibition at 10 µM was found to be 62%.

Regarding `COc1ccc(NCC2=CC(Cc3ccccc3)(NC(=O)C(Cl)(Cl)Cl)CC2)cc1OCCN1CCOCC1` (stereo not drawn) [Compound 94], testing at 10 µM gave an inhibition of 48%.

With `COc1ccc(CCN(CCN2CCOCC2)CC2=CC(Cc3ccccc3)(NC(=O)C(Cl)(Cl)Cl)CC2)cc1OC(=O)c1ccccc1` (stereo not drawn) [Compound 95], the inhibition at 2 µM was found to be 22%.

For `CN(C)c1ccc(C(=O)N(CCc2cccc(OCCN3CCOCC3)c2)CC2=CC(Cc3ccccc3)(NC(=O)C(Cl)(Cl)Cl)CC2)cc1` (stereo not drawn) [Compound 96], 1 µM produced 62% inhibition.

As for `O=C(c1ccc(Cl)c(Cl)c1)N(CC1=CC(Cc2ccccc2)(NC(=O)C(Cl)(Cl)Cl)CC1)c1cccc(OCCN2CCOCC2)c1` (stereo not drawn) [Compound 97], the IC50 (read-out: IC50) worked out at 260 nM.

As to `O=C(c1ccc(F)cc1)N(CC1=CC(Cc2ccccc2)(NC(=O)C(Cl)(Cl)Cl)CC1)c1cccc(CCCN2CCOCC2)c1` (stereo not drawn) [Compound 98], at 1 µM the inhibition was 17%.

The compound `O=C(c1cc(C(F)(F)F)cc(C(F)(F)F)c1)N(CC1=CC(Cc2ccccc2)(NC(=O)C(Cl)(Cl)Cl)CC1)c1cccc(OCCN2CCOCC2)c1` (stereo not drawn) [Compound 99] came in with an inhibition at 1 µM of 28%.

On to `O=C(c1c(F)c(F)c(F)c(F)c1F)N(CC1=CC(Cc2ccccc2)(NC(=O)C(Cl)(Cl)Cl)CC1)c1cccc(OCCN2CCOCC2)c1` (stereo not drawn) [Compound 100], for which the IC50 (read-out: IC50) was found to be 1000 nM.

For `O=C(c1cccc(Br)c1)N(CC1=CC(Cc2ccccc2)(NC(=O)C(Cl)(Cl)Cl)CC1)c1cccc(OCCN2CCOCC2)c1` (stereo not drawn) [Compound 101], the inhibition at 0.1 µM was found to be 54%.

`O=C(c1ccc(Cl)cc1)N(CC1=CC(Cc2ccccc2)(NC(=O)C(Cl)(Cl)Cl)CC1)c1cccc(OCCN2CCOCC2)c1` (stereo not drawn) [Compound 102] gave an inhibition at 0.1 µM of 61%.

As to `O=C(c1cccc(C(F)(F)F)c1)N(CC1=CC(Cc2ccccc2)(NC(=O)C(Cl)(Cl)Cl)CC1)c1cccc(OCCCN2CCOCC2)c1` (stereo not drawn) [Compound 103], testing at 0.1 µM gave an inhibition of 52%.

Compound `O=C(c1ccc(C(F)(F)F)cc1)N(CC1=CC(Cc2ccccc2)(NC(=O)C(Cl)(Cl)Cl)CC1)c1cccc(OCCN2CCOCC2)c1` (stereo not drawn) [Compound 104] registered an inhibition at 0.1 µM of 29%.

Take `O=C(c1ccc(I)cc1)N(CC1=CC(Cc2ccccc2)(NC(=O)C(Cl)(Cl)Cl)CC1)c1cccc(OCCN2CCOCC2)c1` (stereo not drawn) [Compound 105]: the inhibition at 0.1 µM worked out at 59%.

On to `O=C(c1cc(F)cc(F)c1)N(CC1=CC(Cc2ccccc2)(NC(=O)C(Cl)(Cl)Cl)CC1)c1cccc(OCCN2CCOCC2)c1` (stereo not drawn) [Compound 106], for which testing at 0.1 µM gave an inhibition of 78%.

`O=C(c1cccs1)N(CC1=CC(Cc2ccccc2)(NC(=O)C(Cl)(Cl)Cl)CC1)c1cccc(OCCN2CCOCC2)c1` (stereo not drawn) [Compound 108] showed an inhibition at 1 µM of 84%.

Take `N#Cc1ccc(C(=O)N(CC2=CC(Cc3ccccc3)(NC(=O)C(Cl)(Cl)Cl)CC2)c2cccc(OCCN3CCOCC3)c2)cc1` (stereo not drawn) [Compound 109]: where the note is “read-out: IC50”, the IC50 stood at 98 nM.

The compound `CC(C)(C)c1ccc(C(=O)N(CC2=CC(Cc3ccccc3)(NC(=O)C(Cl)(Cl)Cl)CC2)c2cccc(OCCN3CCOCC3)c2)cc1` (stereo not drawn) [Compound 110] had an inhibition at 1 µM of 19%.
